Experiments:
[1] = test system: antibodies in sera from SARS patients (sera 1a, 1b, 2, 6, 37, 62, London, SARS-yellow, SARS-green); format: binding, human; parameters: Binding of serum 6 to linear peptides of protein X1 of SARS-CoV Urbani / Binding of serum 37 to linear peptides of protein X1 of SARS-CoV Urbani / Binding of serum 6 to looped/cyclic peptide (PEPSCAN-ELISA) / Binding of serum 37 to looped/cyclic peptide (PEPSCAN-ELISA) / Binding of serum 37 to looped/cyclic peptides of protein X1 of SARS-CoV Urbani / Binding of serum 6 to linear peptides of protein X2 / Binding of serum 37 to linear peptides of protein X2 / Binding of serum 37 to looped/cyclic peptides of protein X2 of SARS-CoV Urbani / Binding of serum 6 to linear peptides of protein M of SARS-CoV Urbani / Binding of serum 37 to linear peptides of protein M of SARS-CoV Urbani / Binding of serum 6 to looped/cyclic peptides of protein M of SARS-CoV Urbani / Binding of serum 37 to looped/cyclic peptides of protein M of SARS-CoV Urbani / Binding of serum 6 to linear peptides of protein X3 of SARS-CoV Urbani / Binding of serum 37 to linear peptides of protein X3 of SARS-CoV Urbani / Binding of serum 37 to looped/cyclic peptides of protein X3 of SARS-CoV Urbani / Binding of serum 6 to linear peptides of protein X4 of SARS-CoV Urbani / Binding of serum 37 to linear peptides of protein X4 of SARS-CoV Urbani / Binding of serum 37 to looped/cyclic peptides of protein X4 of SARS-CoV Urbani / Binding of serum 6 to linear peptides of protein X5 of SARS-CoV Urbani / Binding of serum 37 to linear peptides of protein X5 of SARS-CoV Urbani / Binding of serum 37 to looped/cyclic peptides of protein X5 of SARS-CoV Urbani / Binding of serum 6 to linear peptides of protein N of SARS-CoV Urbani / Binding of serum 37 to linear peptides of protein N of SARS-CoV Urbani / Binding of serum 6 to linear peptide (PEPSCAN-ELISA) / Binding of serum 1a to looped/cyclic peptides of protein N of SARS-CoV Urbani / Binding of serum 1b to looped/cyclic peptides of protein N of SARS-CoV Urbani / Binding of serum 2 to looped/cyclic peptides of protein N of SARS-CoV Urbani / Binding of serum 6 to looped/cyclic peptides of protein N of SARS-CoV Urbani / Binding of serum 37 to looped/cyclic peptides of protein N of SARS-CoV Urbani / Binding of serum 62 to looped/cyclic peptides of protein N of SARS-CoV Urbani / Binding of serum London to looped/cyclic peptides of protein N of SARS-CoV Urbani / Binding of serum SARS-green to looped/cyclic peptides of protein N of SARS-CoV Urbani: unit not given here
[2] = test system: rabbit serum obtained by immunizing a rabbit with the SARS-CoV strain Frankfurt 1; format: binding; parameters: Binding of a rabbit serum to linear peptides / Binding of a rabbit serum to looped peptides / Rabbit serum linear peptides / Rabbit serum looped peptides / Binding of a rabbit serum to linear peptides of protein N of SARS-CoV Urbani (Rabbit serum linear peptides) / Binding of a rabbit serum to looped/cyclic peptides of protein N of SARS-CoV Urbani (Rabbit serum looped peptides): unit not given here
[3] = test system: recombinant human anti-SARS-CoV antibody 03-018; format: binding; parameters: Binding of antibody 03-018 to linear peptides of the N protein of SARS-CoV Urbani / Binding of antibody 03-018 to looped/cyclic peptides of the N protein of SARS-CoV Urbani: unit not given here
[4] = test system: control sera (pooled serum of ten healthy LUMC hospital workers; commercial negative donor pooled serum from the Dutch bloodbank); format: binding, human; parameters: Binding of Control serum LUMC to linear peptides / Binding of Control serum Blood-bank to linear peptides / Binding of Control serum LUMC to looped peptides / Binding of Control Serum Blood-Bank to Looped peptides / Binding of Control serum LUMC to linear peptides of the protein M of SARS-CoV Urbani / Binding of Control serum Blood-bank to linear peptides of the protein M of SARS-CoV Urbani / Binding of Control serum LUMC to looped peptides of the protein M of SARS-CoV Urbani / Binding of Control Serum Blood-Bank to Looped peptides of the protein M of SARS-CoV Urbani: unit not given here

| Sequence | Binding of serum 1a to linear peptides of protein N of SARS-CoV Urbani [1] | Binding of serum 1a to looped/cyclic peptides of protein N of SARS-CoV Urbani [1] | Binding of serum 1b to linear peptides of protein N of SARS-CoV Urbani [1] | Binding of serum 1b to looped/cyclic peptides of protein N of SARS-CoV Urbani [1] | Binding of serum 2 to linear peptides of protein N of SARS-CoV Urbani [1] | Binding of serum 2 to looped/cyclic peptides of protein N of SARS-CoV Urbani [1] | Binding of serum 6 to looped/cyclic peptides of protein N of SARS-CoV Urbani [1] | Binding of serum 37 to looped/cyclic peptides of protein N of SARS-CoV Urbani [1] | Binding of serum 62 to looped/cyclic peptides of protein N of SARS-CoV Urbani [1] | Binding of serum London to looped/cyclic peptides of protein N of SARS-CoV Urbani [1] | Binding of serum SARS-green to looped/cyclic peptides of protein N of SARS-CoV Urbani [1] | Binding of serum SARS-yellow to looped/cyclic peptides of protein N of SARS-CoV Urbani [1] | Binding of a rabbit serum to linear peptides of protein N of SARS-CoV Urbani (Rabbit serum linear peptides) [2] | Binding of a rabbit serum to looped/cyclic peptides of protein N of SARS-CoV Urbani (Rabbit serum looped peptides) [2] | Binding of antibody 03-018 to linear peptides of the N protein of SARS-CoV Urbani [3] | Binding of antibody 03-018 to looped/cyclic peptides of the N protein of SARS-CoV Urbani [3] | Binding of Control Serum Blood-Bank to Looped peptides [4] | Binding of Control serum Blood-bank to linear peptides [4] | Binding of Control serum LUMC to linear peptides [4] | Binding of Control serum LUMC to looped peptides [4] | also measured |
| --- | --- | --- | --- | --- | --- | --- | --- | --- | --- | --- | --- | --- | --- | --- | --- | --- | --- | --- | --- | --- | --- |
| DNGPQSNQRSAPRIT | 0.2 | 0.2 | 0.1 | 0.1 | 0.3 | 0.1 | 0.2 | 0.5 | 0.3 | 0.2 | 0.2 | 0.1 | 0.1 | 0.3 | 0.2 | 0.3 | 0.5 | 0.7 | 0.7 | 0.4 | Binding of serum 6 to linear peptides of protein N of SARS-CoV Urbani [1]: 0.2; Binding of serum 37 to linear peptides of protein N of SARS-CoV Urbani [1]: 0.6; Binding of serum 62 to linear peptides of protein N of SARS-CoV Urbani [1]: 0.5; Binding of serum London to linear peptides of protein N of SARS-CoV Urbani [1]: 0.4; Binding of serum SARS-green to linear peptides of protein N of SARS-CoV Urbani [1]: 0.4; Binding of serum SARS-yellow to linear peptides of protein N of SARS-CoV Urbani [1]: 0.5 |
| DQDLIRQGTDYKHWP |  | 0.2 |  | 0.1 |  | 0.3 | 0.1 | 0.4 | 0.3 | 0.3 | 0.1 | 0.1 | 0.1 | 0.1 | 0.1 | 0.2 | 0.4 | 0.8 | 0.7 | 0.4 | Binding of serum 1a to linear peptide (PEPSCAN-ELISA) [1]: 0.3; Binding of serum 1b to linear peptide (PEPSCAN-ELISA) [1]: 0.1; Binding of serum 2 to linear peptide (PEPSCAN-ELISA) [1]: 0.2; Binding of serum 6 to linear peptide (PEPSCAN-ELISA) [1]: 0.2; Binding of serum 37 to linear peptide (PEPSCAN-ELISA) [1]: 0.7; Binding of serum 62 to linear peptide (PEPSCAN-ELISA) [1]: 0.6; Binding of serum London to linear peptide (PEPSCAN-ELISA) [1]: 0.8; Binding of serum SARS-green to linear peptide (PEPSCAN-ELISA) [1]: 0.5; Binding of serum SARS-yellow to linear peptide (PEPSCAN-ELISA) [1]: 0.7 |
| DRLNQLESKVSGKGQ |  | 0.4 |  | 0.3 |  | 0.6 | 0.4 | 0.6 | 0.4 | 0.4 | 0.4 | 0.8 | 0.3 | 0.4 | 0.1 | 0.3 | 0.6 | 0.9 | 0.7 | 0.6 | Binding of serum 1a to linear peptide (PEPSCAN-ELISA) [1]: 0.3; Binding of serum 1b to linear peptide (PEPSCAN-ELISA) [1]: 0.1; Binding of serum 2 to linear peptide (PEPSCAN-ELISA) [1]: 0.3; Binding of serum 6 to linear peptide (PEPSCAN-ELISA) [1]: 0.2; Binding of serum 37 to linear peptide (PEPSCAN-ELISA) [1]: 0.8; Binding of serum 62 to linear peptide (PEPSCAN-ELISA) [1]: 0.7; Binding of serum London to linear peptide (PEPSCAN-ELISA) [1]: 0.5; Binding of serum SARS-green to linear peptide (PEPSCAN-ELISA) [1]: 0.5; Binding of serum SARS-yellow to linear peptide (PEPSCAN-ELISA) [1]: 0.7 |
| DSTDNNQNGGRNGAR | 0.2 | 0.4 | 0.1 | 0.3 | 0.2 | 0.5 | 0.3 | 0.7 | 0.4 | 0.5 | 0.8 | 0.5 | 0.1 | 0.5 | 0.2 | 0.3 | 0.6 | 0.8 | 0.7 | 0.7 | Binding of serum 6 to linear peptides of protein N of SARS-CoV Urbani [1]: 0.2; Binding of serum 37 to linear peptides of protein N of SARS-CoV Urbani [1]: 1.0; Binding of serum 62 to linear peptides of protein N of SARS-CoV Urbani [1]: 0.8; Binding of serum London to linear peptides of protein N of SARS-CoV Urbani [1]: 0.5; Binding of serum SARS-green to linear peptides of protein N of SARS-CoV Urbani [1]: 0.5; Binding of serum SARS-yellow to linear peptides of protein N of SARS-CoV Urbani [1]: 0.5 |

Source: patent US20070128217A1 (priority 2003, published 2007)
